Patent US20240076347A1, “METHODS FOR PREVENTING FUNGAL INFECTIONS” (Cidara Therapeutics, Inc., priority 2016, published 2024)
Numbered stars: 1 amine (or outer) side, 2 acyl side, 3 side chain; on linkers, the order of the positions; unused ones are H or OH. Bridge positions count the residues as written; N and C are the ends. Square brackets hold non-standard residues; d marks the D form. Peptide text beside a SMILES is read from it. * marks the point of attachment. ξ: configuration not given here. Orn(4R-OH,5R-OCH2CH2NMe3+) = C[N+](C)(C)CCO[C@@H](N[*:3])[C@H](O)C[C@H](N[*:1])C(=O)[*:2]; pTerphenylCO(4''-OnC5H11) = CCCCCOc1ccc(-c2ccc(-c3ccc(C(=O)*)cc3)cc2)cc1; hTyr(3S-OH,4S-OH) = N[C@H](C(=O)O)[C@H](O)[C@@H](O)c1ccc(O)cc1; X1 = C[C@H]1CN([*:1])C(C(=O)[*:2])C1O; Hyp = O=C(O)[C@@H]1C[C@@H](O)CN1; ξT = CC(O)C(N)C(=O)O

Assays:
[1] = tested on: Aspergillus fumigatus (strain AF293); assay: Murine model of pulmonary aspergillosis (Example 9), survival and lung burden; type: in vivo; conditions: for Group Geometric mean / Log10 Group Geometric mean / Log10 reduction from vehicle control: terminal lung burden
Procedure: Animal Strain and Housing. Mice used in these studies were supplied by Charles River (Margate UK) and were specific pathogen free. The strain of mice used was ICR (also known as CD1 Mice) which is a well characterized outbred murine strain. Male mice were 11-15 g on receipt at our facility and allowed to acclimatize for at least seven days.
Immunosuppression. Mice were immunosuppressed on Day −4 with 150 mg/kg cyclophosphamide IP, and on Day −1 with 150 mg/kg cyclophosphamide IP and 175 mg/kg cortisone acetate SC. To prevent bacterial infection due to the immunosuppression mice were given 50 mg/kg/day ceftazidime.
Preparation of Organism and Infection. A. fumigatus strain AF293 inoculum was prepared from spore cultures grown on Sabouraud Dextrose agar (SAB) containing 50 μg/mL chloramphenicol (SABC) in vented tissue culture flasks. Following incubation for 7-10 days at 30° C., spore cultures were washed in sterile phosphate buffered saline (PBS) containing 0.05% Tween 80. Spore count was determined using a haemocytometer and spores were diluted in PBS to ˜6.9×10^6 CFU/mL. Inoculum concentration was confirmed by quantitative culture onto SABC agar. Neutropenic mice lungs were infected with 0.04 mL (0.02 mL/nares) of ˜6.9×10^6 CFU/mL (˜2.8×10^5 cfu/mouse) of A. fumigatus strain AF293 by intranasal (IN) instillation under temporary 2.5% isoflurane induced anesthesia.
Preparation of Test Articles. Micafungin was provided as a 50 mg vial (Lot 02323002, expiry 08/2017) and was prepared as per manufacturer instructions by adding 5 mL saline for injection (SFI) directly into the vial to make a 10 mg/mL stock solution. This solution was then diluted further in SFI to a working concentration of 0.2 mg/mL. The compound was administered IP at 10 mL/kg to achieve a 2 mg/kg dose. It was prepared fresh once and stored at 4° C. between doses.
Test article CD101 stock was prepared at 2 mg/mL in 10% DMSO/1% Tween 20 diluent. A clear non particulate solution was obtained following gentle mixing. The stock was kept at 4° C. until required. Study doses of 5 mg/kg (0.5 mg/mL) and 10 mg/kg (1 mg/mL) were prepared from the 2 mg/mL stock as required by diluting in 10% DMSO/1% Tween 20 diluent. The 2 mg/mL stock was used undiluted for the 20 mg/kg study dose. All doses were administered IP at 10 mL/kg.
Treatment. For this study, treatments were initiated on day five pre-infection according to treatment groups outlined in Table 15. A total of 78 mice (six mice per treatment group) were used in the study.
Endpoints. The primary endpoint for this study was survival within agreed ethical limits (>20% weight loss, severe hypothermia <34° C., inability to reach food or drink, severe hunching). Mice were monitored by daily weight measurements with observations as frequently as clinical condition required. Mice presenting with severe clinical deterioration were humanely euthanized using an overdose of pentobarbitone administered by IP injection following clinical assessment and the time of death was recorded. Animal carcasses were stored at −20° C. for assessment of burden. Ten days post infection all surviving animals were weighed and had their clinical condition assessed prior to being euthanized. Final survival numbers were recorded and analyzed as described below and carcasses frozen at −20° C. prior to further processing.
A secondary endpoint for the study was terminal lung tissue burden. Immediately following confirmation of death, carcasses were frozen at −20° C. prior to tissue dissection and processing. The frozen carcasses were thawed at room temperature and the lungs removed and placed into pre-weighed bead-beating tubes containing 2 mL of PBS and subjected to mechanical disruption. Organ homogenates were diluted further in PBS and quantitatively cultured for A. fumigatus onto SABC and incubated at 30° C. for 24-48 hours. […]

[2] = tested on: Candida albicans SC5314; assay: Immunocompetent DBA/2 mouse model of disseminated candidiasis, treatment, kidney CFU; type: in vivo; conditions: 24 hr
Procedure: The efficacy of CD101 SC was studied in an immunocompetent DBA/2 mouse model of disseminated candidiasis. Mice (5/grp) were challenged with Candida albicans SC5314 (ATCC: MYA-2876, fluconazole-sensitive human clinical isolate shown to be pathogenic in mice) via IV injection (100 μL, 5.0 log CFU/mouse) and treated with CD101 SC (1, 3 or 10 mg/kg). Micafungin via IP administration was tested as a positive control at the same 3 doses. At 24 hours following challenge, kidneys were harvested and processed for CFU enumeration. All comparisons were made between the treatment and time-matched vehicle groups.

[3] = tested on: A. fumigatus AF293; assay: Pulmonary aspergillosis in neutropenic ICR mice (Examples 14, 15), prophylaxis, survival; type: in vivo, Aspergillus fumigatus
Procedure: Pulmonary aspergillosis: ICR mice (10/grp) were made neutropenic by cyclophosphamide on Day −4 (150 mg/kg), and CPM/cortisone on Day −1 (150/175 mg/kg). Intranasal infection with A. fumigatus AF293 (10^5 CFU/mouse) on Day 0. Prophylaxis CD101 as a single dose (IP; 5, 10, 20 mg/kg) or posaconazole (PO; 2 and 10 mg/kg) 1 day prior to infection. Survival monitored for 10 days.
Pulmonary aspergillosis: ICR mice (10/grp) were made neutropenic by cyclophosphamide on Day −4 (150 mg/kg), and cyclophosphamide/cortisone was given on Day −1 (150/175 mg/kg). Intranasal challenge with A. fumigatus AF293 (10^5 CFU/mouse) was initiated on Day 0 and prophylaxis with CD101 as a single dose (IP; 5, 10, 20 mg/kg) or posaconazole (PO; 2 and 10 mg/kg) was started 1 day prior to infection. Survival was monitored for 10 days.

[4] = 5 mg/kg IP Day 0 (1 h post infection)

CCCCCOc1ccc(-c2ccc(-c3ccc(C(=O)N[C@H]4C[C@@H](O)[C@@H](OCC[N+](C)(C)C)NC(=O)C5C(O)[C@@H](C)CN5C(=O)[C@H]([C@@H](C)O)NC(=O)[C@H]([C@H](O)[C@@H](O)c5ccc(O)cc5)NC(=O)[C@@H]5C[C@@H](O)CN5C(=O)C(C(C)O)NC4=O)cc3)cc2)cc1 (stereo partly drawn) [CD101] ({pTerphenylCO(4''-OnC5H11)}-[Orn(4R-OH,5R-OCH2CH2NMe3+)][ξT][Hyp][hTyr(3S-OH,4S-OH)]T[X1]; lactam 1-C)
Mean Survival [1, 4]: 67.8 h | Median Survival [1, 4]: 64.6 h | Mean Survival ([1]; 5 mg/kg IP Day −1): 72.1 h | Median Survival ([1]; 5 mg/kg IP Day −1): 67.6 h | Mean Survival ([1]; 5 mg/kg IP Day −3): 70.0 h | Median Survival ([1]; 5 mg/kg IP Day −3): 67.7 h | Mean Survival ([1]; 5 mg/kg IP Day −5): 65.3 h | Median Survival ([1]; 5 mg/kg IP Day −5): 65.3 h | Mean Survival ([1]; 10 mg/kg IP Day −1): 121.8 h | Median Survival ([1]; 10 mg/kg IP Day −1): 81.0 h | Mean Survival ([1]; 10 mg/kg IP Day −3): 76.9 h | Median Survival ([1]; 10 mg/kg IP Day −3): 73.4 h | Mean Survival ([1]; 10 mg/kg IP Day −5): 67.2 h | Median Survival ([1]; 10 mg/kg IP Day −5): 65.7 h | survival compared to micafungin one day before infection ([1]; 10 mg/kg and 20 mg/kg IP one day before infection): statistically greater survival | Mean Survival ([1]; 20 mg/kg IP Day −1): 155.6 h | Median Survival ([1]; 20 mg/kg IP Day −1): 72.3 h | Mean Survival ([1]; 20 mg/kg IP Day −3): 91.9 h | Median Survival ([1]; 20 mg/kg IP Day −3): 69.8 h | Mean Survival ([1]; 20 mg/kg IP Day −5): 75.5 h | Median Survival ([1]; 20 mg/kg IP Day −5): 69.8 h | Group Geometric mean ([1]; 5 mg/kg IP Day 0): 5.65 × 10^4 CFU/g | Log10 Group Geometric mean ([1]; 5 mg/kg IP Day 0): 4.75 CFU/g | Log10 reduction from vehicle control ([1]; 5 mg/kg IP Day 0): −0.98 CFU/g | Group Geometric mean ([1]; 5 mg/kg IP Day −1): 3.75 × 10^4 CFU/g | Log10 Group Geometric mean ([1]; 5 mg/kg IP Day −1): 4.57 CFU/g | Log10 reduction from vehicle control ([1]; 5 mg/kg IP Day −1): −0.80 CFU/g | Group Geometric mean ([1]; 5 mg/kg IP Day −3): 5.71 × 10^4 CFU/g | Log10 Group Geometric mean ([1]; 5 mg/kg IP Day −3): 4.76 CFU/g | Log10 reduction from vehicle control ([1]; 5 mg/kg IP Day −3): −0.98 CFU/g | Group Geometric mean ([1]; 5 mg/kg IP Day −5): 6.36 × 10^4 CFU/g | Log10 Group Geometric mean ([1]; 5 mg/kg IP Day −5): 4.80 CFU/g | Log10 reduction from vehicle control ([1]; 5 mg/kg IP Day −5): −1.03 CFU/g | Group Geometric mean ([1]; 10 mg/kg IP Day −1): 5.17 × 10^3 CFU/g | Log10 Group Geometric mean ([1]; 10 mg/kg IP Day −1): 3.71 CFU/g | Log10 reduction from vehicle control ([1]; 10 mg/kg IP Day −1): 0.06 CFU/g | Group Geometric mean ([1]; 10 mg/kg IP Day −3): 7.34 × 10^3 CFU/g | Log10 Group Geometric mean ([1]; 10 mg/kg IP Day −3): 3.87 CFU/g | Log10 reduction from vehicle control ([1]; 10 mg/kg IP Day −3): −0.09 CFU/g | Group Geometric mean ([1]; 10 mg/kg IP Day −5): 3.40 × 10^4 CFU/g | Log10 Group Geometric mean ([1]; 10 mg/kg IP Day −5): 4.53 CFU/g | Log10 reduction from vehicle control ([1]; 10 mg/kg IP Day −5): −0.76 CFU/g | Group Geometric mean ([1]; 20 mg/kg IP Day −1): 1.12 × 10^4 CFU/g | Log10 Group Geometric mean ([1]; 20 mg/kg IP Day −1): 4.05 CFU/g | Log10 reduction from vehicle control ([1]; 20 mg/kg IP Day −1): −0.28 CFU/g | Group Geometric mean ([1]; 20 mg/kg IP Day −3): 4.92 × 10^4 CFU/g | Log10 Group Geometric mean ([1]; 20 mg/kg IP Day −3): 4.69 CFU/g | Log10 reduction from vehicle control ([1]; 20 mg/kg IP Day −3): −0.92 CFU/g | Group Geometric mean ([1]; 20 mg/kg IP Day −5): 8.35 × 10^3 CFU/g | Log10 Group Geometric mean ([1]; 20 mg/kg IP Day −5): 3.92 CFU/g | Log10 reduction from vehicle control ([1]; 20 mg/kg IP Day −5): −0.15 CFU/g | animals completely cleared of CFU burden ([2]; 1 mg/kg SC): 4 of 5 | kidney CFU ([2]; 1, 3 and 10 mg/kg SC, vs vehicle): significant reduction in kidney CFU | kidney CFU ([2]; 3 or 10 mg/kg SC): complete CFU clearance | survival ([3]; 20 mg/kg IP one day prior to infection (human 400 mg AUC equivalent)): increase in survival relative to control | survival rate ([3]; 20 mg/kg IP one day prior to infection, 10 days): 30% | survival rate ([3]; single dose IP (5, 10, 20 mg/kg) one day prior to infection): dose-dependent increase in survival rate
